{"source": "patent US20140011853A1", "about": "“SUBSTITUTED 3-(BIPHENYL-3-YL)-8,8-DIFLUORO-4-HYDROXY-1-AZASPIRO[4.5]DEC-3-EN-2-ONES FOR THERAPY” (BAYER INTELLECTUAL PROPERTY GMBH, priority 2011, published 2014)", "key": {"[1]": {"test": "Prediction of human pharmacokinetic parameters and human therapeutic dosage", "procedure": "The human pharmacokinetic (PK) parameters (Table 9) were predicted based on the in vivo PK parameters obtained for rats (single species scaling), taking into account the interspecies differences in the free fraction (fu) in the plasma. The effective AUC (area under curve) was determined based on the measured plasma concentration time profile for in vivo efficacy in the PC3 tumour model of the mouse (nu/nu mouse)."}, "[2]": {"test_system": "PC-3 prostate carcinoma xenograft", "test": "PC-3 prostate carcinoma xenograft model in the mouse", "details": "for T/C: 17 days, 2 administrations per day", "protocol": "(§1) Xenograft models in immunosuppressed mice were used to determine the antitumour activity in living organisms.\n(§2) Use was made primarily of a prostate carcinoma model with hormone-independent human PC-3 cells in male nude mice (NMRI-nude (nu/nu) mice, Taconic M&B A/S). To this end, 3 million tumour cells (suspended in medium+Matrigel) 1:1, final 0.1 ml) were injected subcutaneously into the side of each animal. When the tumours extended to an area of 20-30 mm^2., the mice were randomized into therapy groups and therapy was initiated. […] At this point in time, the experiment was terminated in all groups and the prepared tumours were weighed. The T/C value was calculated as primary success parameter using the effect on the final tumour weight: mean tumour weight in the treatment group divided by mean of the tumour weight in the vehicle group.\n(§3) Administration route: per os Vehicle: PEG400/ethanol/Solutol HS 15 (70/5/25, v/v/v) Administration volume: 10 ml/kg"}, "[3]": {"test": "PC-3 prostate carcinoma xenograft model in the mouse", "details": "male, NMRI-nude (nu/nu), mouse, in vivo, po", "protocol": "as §1, §2, §3"}, "[4]": {"test": "Maximum tolerated dose (MTD) in the mouse", "format": "in vivo", "details": "for Deaths: 21 days; for MTD at 21 days: female, NMRI-nude (nu/nu), mouse, in vivo, oral, 21-day treatment", "protocol": "The MTD was defined as the highest dose which could be administered without any animal dying during the treatment phase, and without any body weight loss of more than 10% compared to the initial weight.\nExample 1-1 was administered to female nude mice (NMRI nu/nu):\nThe treatment phase was followed by an observation phase of 21 days."}}}
{"smiles": "Cc1ccc(-c2ccc(Cl)cc2)cc1C1=C(O)C2(CCC(F)(F)CC2)NC1=O", "note": "[Example 1-2, 3-(4′-Chloro-4-methylbiphenyl-3-yl)-8,8-difluoro-4-hydroxy-1-azaspiro[4.5]dec-3-en-2-one]", "values": [{"measurement": "melting point", "result": 105, "unit": "°C"}]}
{"smiles": "Cc1ccc(-c2ccc(Cl)c(F)c2)cc1C1=C(O)C2(CCC(F)(F)CC2)NC1=O", "note": "[Example 1-1, 3-(4′-Chloro-3′-fluoro-4-methylbiphenyl-3-yl)-8,8-difluoro-4-hydroxy-1-azaspiro[4.5]dec-3-en-2-one]", "values": [{"measurement": "calc. AUC (human)", "setting": "[1]; from mouse dosage 40 mg/kg 2 × per day", "result": 1882, "unit": "µg·h/mL"}, {"measurement": "calc. AUC (human)", "setting": "[1]; from mouse dosage 80 mg/kg 2 × per day", "result": 3041, "unit": "µg·h/mL"}, {"measurement": "pred. CL (human)", "setting": "[1]; predicted (fu-corrected), single species scaling from rat", "result": 3, "unit": "mL/h/kg"}, {"measurement": "T/C", "setting": "[2]; 40 mg/kg per os", "result": 0.26}, {"measurement": "T/C", "setting": "[2]; 80 mg/kg day 1-3, 70 mg/kg from day 4 onwards, per os", "result": 0.26}, {"measurement": "Reduction in body weight in individual animals", "setting": "[2]; 80 mg/kg, 2 times per day, after 3 days", "result": "more than 10%"}, {"measurement": "AUC", "setting": "[3]; 40 mg/kg", "result": 376, "unit": "µg·h/mL"}, {"measurement": "AUC", "setting": "[3]; 80 mg/kg", "result": 6080, "unit": "µg·h/mL"}, {"measurement": "Deaths", "setting": "[4]; 12.5 mg/kg per os, 1 administration per day", "result": "0 of 4"}, {"measurement": "Deaths", "setting": "[4]; 25 mg/kg per os, 1 administration per day", "result": "0 of 4"}, {"measurement": "Deaths", "setting": "[4]; 50 mg/kg per os, 1 administration per day", "result": "0 of 4"}, {"measurement": "Deaths", "setting": "[4]; 50 mg/kg per os, 2 administrations per day", "result": "0 of 4"}, {"measurement": "Deaths", "setting": "[4]; 75 mg/kg per os, 1 administration per day", "result": "0 of 4"}, {"measurement": "Deaths", "setting": "[4]; 100 mg/kg per os, 1 administration per day", "result": "0 of 4"}, {"measurement": "MTD at 21 days", "setting": "[4]; 50 mg/kg, administration twice per day", "result": "> 50", "unit": "mg/kg"}, {"measurement": "MTD at 21 days", "setting": "[4]; administration once per day", "result": "> 100", "unit": "mg/kg"}]}
